Data from US8106152B2, “Antimicrobial composition” (Dairy Australia Limited, priority 2003, dated 2012).
Like-named read-outs stand apart in the source and are kept apart here. Non-standard residues stand in square brackets, D forms with d. No end group written: not given here. pS = N[C@@H](COP(=O)(O)O)C(=O)O

What was measured:
[1] = test system: Streptococcus mutans Ingbritt; conditions: S. mutans, pH 6.28; previous study (Malkoski et al., 2001); cited from earlier work
[2] = test system: Streptococcus mutans Ingbritt; assay: Antibacterial planktonic assay (microplate growth assay); format: cell-based; conditions: for MIC: pH 7.20, tested singly or in combination with a 1:1 ratio of zinc or calcium; for inhibition of S. mutans growth: growth pH 7.20, up to concentrations of 300 μM
Method: The oral opportunistic pathogen Streptococcus mutans Ingbritt was used in this study as an indicator strain. The antibacterial assay was conducted in 96 well plates and bacterial growth continuously monitored over 40 h, as previously described (Malkoski et al., 2001). Briefly, bacteria were cultured in Todd Hewitt Broth (36.4 g/l) containing Yeast extract (5.0 g/l) and 100 mM potassium phosphate with a pH of 6.3 or 7.2. The bacterial inocula were prepared by diluting exponentially growing cells in growth medium to give 2.7×10^4 viable cells/ml. In the bacterial growth assays test wells contained κ-casein-A(106-169) or κ-casein-B(106-169) at concentrations between 20 and 120 μM. these peptides were also tested in combination with zinc or calcium ions to give ratios of […]:divalent metal ion of 1:1 to 1:4. Synthetic […]κ-casein-A(138-158) and […]κ-casein-B(138-158) peptides were also tested in this assay. The plates were incubated at 37° C. and growth determined by measuring optical density (OD) at 620 nm using an iEMS microplate reader (Labsystems, OY Research Technologies Division).

[3] = test system: S. mutans Ingbritt biofilm; assay: Viability of S. mutans cultured as a biofilm in constant depth film fermenter (CDFF); format: cell-based, Streptococcus mutans
Method: A constant depth film fermenter (CDFF: Wimmpenny, Cardiff University, UK) was used for biofilm formation. The CDFF consists of a stainless steel disc rotating at a constant speed of 3 rpm containing 15 polytetrafluoroethylene (PTFE) pans each of which contain 5 plugs of 4.5 mm in diameter. The plugs were set to 0.4 mm below the surface of the steel disc. Inbuilt scrapers were used to maintain a constant biofilm depth of 0.4 mm. The scrapers are attached so that the stainless steel disc rotates under them; the scrapers are spring loaded so that they are pressed down against the pans. An anaerobic atmosphere was maintained in the CDFF by continuous gassing with 5% CO2 in N2. The CDFF was housed in a modified CO2 incubator, which was used to maintain a constant culture temperature of 37° C. A S. mutans Ingbritt batch culture in Todd Hewitt (35.4 g/l), Yeast Extract (8 g/L) broth (THYE) in exponential growth phase was used to inoculate the CDFF at a flow rate of 30 ml/h for 5 h. The growth media, THYE containing 0.1% (w/v) sucrose, was then pumped into the CDFF at a constant flow rate of 40 ml/h.
At specified times prior to and after treatment with solutions, plugs were removed from the CDFF, washed to remove planktonic bacteria and viable counts were performed to determine bacterial numbers. To assess the effect on cell viability of various solutions growth media addition to the CDFF was suspended for 10 min and replaced by the solution at a flow rate of 30 ml/h. After 10 min growth media addition was resumed. Solutions tested in the CDFF were: 2 mM Tris-HCl pH6.0; 10 mg/ml Kappacin preparation (see above) in 2 mM Tris-HCl pH 6.0; 10 mg/ml Kappacin preparation (see above) and 20 mM ZnCl2 in 2 mM Tris-HCl pH 6.0; 20 mM ZnCl2 in 2 mM Tris-HCl pH 6.0; 2 mM ZnCl2 in 2 mM Tris-HCl pH 6.0 and 0.05% chlorhexidine digluconate in deionized water.

plaque [4] = conditions: double blind crossover trial, Addy et al., 1980; cited from earlier work
[5] = test system: supragingival dental plaque; assay: Clinical antiplaque trial, mouthrinse as only oral hygiene, Silness and Loe Plaque Index; format: in vivo, human
Description: Ten subjects were recruited for the double-blind, cross-over study. Subjects were recruited from undergraduate students enrolled at the School of Dental Science, The University of Melbourne. The group consisted of 6 females and 4 males with a mean age of 21 years. Subjects were examined prior to the commencement of the trial and all were gauged to be of good health, having dentitions without unrestored carious lesions or evidence of moderate to severe gingivitis. The subjects had not used any dentifrices containing antimicrobial agents prior to commencement of the trial. Approval was obtained from the Human Research Ethics Committee of the University of Melbourne.
At the commencement of the trial, the subjects were instructed to cease all other forms of daily oral hygiene practices and to solely rely on the use of the allocated mouthrinse solution. Four solutions were tested as mouthrinses in this investigation: Solution A: Deionized water. B: 1% (w/v) Kappacin preparation in deionized water. C: 20 mM ZnCl in deionized water. D: 1% (w/v) Kappacin preparation and 20 mM ZnCl in deionized water. The pH of all solutions was adjusted to 6.9±0.1 using KOH. Subjects were instructed to rinse three times daily: morning, mid-day and evening with 15 ml of solution for a duration of one minute. Each trial session was for four days with a clinical evaluation at the end of the trial. The Silness and Loe Plaque Index (PI) was used to evaluate plaque (Silness and Loe, 1964). The gingival area of each tooth surface (distal, buccal, mesial and lingual) was given a score from 0-3. All teeth excluding third molars were scored at the conclusion of the trial. Following each trial session the subjects resumed their normal oral hygiene habits for a minimum of seven days prior to the next trial. Data were analysed using the nonparametric Wilcoxon rank test.

plaque [6] = conditions: mouthrinse, Silness and Loe plaque index, Giertsen et al. (1988); cited from earlier work

## AVESTVATLED[pS]PEVIESPP [Ser(P)^149κ-casein-A(138-158)]
[1]
  MIC: 26 µM
[2]; S. mutans
  MIC: NI (No inhibition at concentrations up to 1 mM)
[2]
  inhibition of S. mutans growth: no inhibition

## [H]/N=C(\N/C(=N/[H])NCCCCCCNC(=N)NC(=N)Nc1ccc(Cl)cc1)Nc1ccc(Cl)cc1 [chlorhexidine digluconate]
[3]
  decrease in S. mutans cell viability: 48%
[3]; 0.05% (w/v) solution
  time after treatment with no significant difference to pre-treatment viability: 3.5 h

## O=C([O-])CC(O)(CC(=O)[O-])C(=O)[O-].O=C([O-])CC(O)(CC(=O)[O-])C(=O)[O-].[Zn+2].[Zn+2].[Zn+2] [Zinc citrate]
Plaque [4]
  reduction of plaque accumulation (Turesky plaque index): 5-8%

## [Ca+2].[Cl-].[Cl-] [CaCl2]
[2]; S. mutans
  MIC: NI (No inhibition at concentrations up to 1 mM)
[2]; alone, at concentrations up to 1 mM
  effect on S. mutans growth: no effect

## CC[C@H](C)[C@H](NC(=O)[C@@H](NC(=O)[C@H](CCC(=O)O)NC(=O)[C@@H]1CCCN1C(=O)[C@H](COP(=O)(O)O)NC(=O)[C@H](C)NC(=O)[C@H](CCC(=O)O)NC(=O)[C@H](CC(C)C)NC(=O)[C@@H](NC(=O)[C@H](C)NC(=O)[C@@H](NC(=O)[C@@H](NC(=O)[C@H](CO)NC(=O)[C@H](CCC(=O)O)NC(=O)[C@@H](NC(=O)[C@H](C)N)C(C)C)[C@@H](C)O)C(C)C)[C@@H](C)O)C(C)C)C(=O)N[C@@H](CCC(=O)O)C(=O)N[C@@H](CO)C(=O)N1CCC[C@H]1C(=O)N1CCC[C@H]1C(=O)N[C@@H](CCC(=O)O)C(=O)O [Ser(P)^149κ-casein-B(138-158), Ala Val Glu Ser Thr Val Ala Thr Leu Glu Ala Ser(P) Pro Glu Val Ile Glu Ser Pro Pro]
[2]; S. mutans, growth pH 6.28, microplate growth assay
  calculated MIC: 44 µM
[2]
  inhibition of S. mutans growth: no inhibition

## [Cl-].[Cl-].[Zn+2] [ZnCl2]
[3]; 20 mM ZnCl2 in 2 mM Tris-HCl pH 6.0
  decrease in viable cell counts: 92%
[3]; 5 ml of 2 mM ZnCl2 in 2 mM Tris-HCl pH 6.0
  reduction of viable count: ~60%
[5]; four days mouthrinse as only oral hygiene
  plaque accumulation relative to water or other treatments (Wilcoxon rank test, posterior teeth plaque index scores): significantly (P<0.05) reduced
[5]; four days, 20 mM zinc chloride mouthrinse
  decrease in mean whole mouth plaque index scores: 6%
[5]; four days, 15 ml rinse three times daily, 1% (w/v) Kappacin and/or 20 mM ZnCl2, pH 6.9
  decrease in the mean Plaque Index Score of posterior teeth compared with water control: 9%
Plaque [6]
  increase in the tooth surfaces with no plaque compared with a water control: 9%
[2]; S. mutans
  MIC: 200 µM
